This passage reports inhibition and Activity results from ChEMBL document CHEMBL3593229, “Identification of a potent 5-phenyl-thiazol-2-ylamine-based inhibitor of FLT3 with activity against drug resistance-conferring point mutations” (Eur J Med Chem, 2015).

The source made the active and inactive calls. No cut-off for these calls is given here.

Test [1] addresses Receptor-type tyrosine-protein kinase FLT3 (Homo sapiens) (UniProt P36888). Nature of the test: Inhibition of human FLT3 at 0.1 uM relative to control.
Test [2] has as its target Serine/threonine-protein kinase Nek1 (Homo sapiens) (UniProt Q96PY6). Nature of the test: Inhibition of human NEK1 at 0.1 uM relative to control.
Test [3] concerns the target Inhibitor of nuclear factor kappa-B kinase subunit epsilon (Homo sapiens) (UniProt Q14164). Put plainly: Inhibition of human IKKepsilon at 0.1 uM relative to control.
The subject of the next test is MV4-11. Put plainly: Antitumor activity against human MV4-11 cells xenografted in nude mouse assessed as tumor regression at 25 mg/kg, po qd administered on day 8 to 12 measured during 48 days post last dose. Format: functional, organism-based. (Xenograft models place foreign cells or tissue in a host animal.)
In the next test the test system is Mus musculus. Put plainly: Antitumor activity against human MOLM13 cells xenografted in SCID mouse assessed as increase in survival at 25 mg/kg, po qd administered on day 8 to 12 relative to vehicle-treated control. It is filed as functional, MOLM-13.

Chain of Receptor-type tyrosine-protein kinase FLT3 (Homo sapiens) (P36888 whole entry): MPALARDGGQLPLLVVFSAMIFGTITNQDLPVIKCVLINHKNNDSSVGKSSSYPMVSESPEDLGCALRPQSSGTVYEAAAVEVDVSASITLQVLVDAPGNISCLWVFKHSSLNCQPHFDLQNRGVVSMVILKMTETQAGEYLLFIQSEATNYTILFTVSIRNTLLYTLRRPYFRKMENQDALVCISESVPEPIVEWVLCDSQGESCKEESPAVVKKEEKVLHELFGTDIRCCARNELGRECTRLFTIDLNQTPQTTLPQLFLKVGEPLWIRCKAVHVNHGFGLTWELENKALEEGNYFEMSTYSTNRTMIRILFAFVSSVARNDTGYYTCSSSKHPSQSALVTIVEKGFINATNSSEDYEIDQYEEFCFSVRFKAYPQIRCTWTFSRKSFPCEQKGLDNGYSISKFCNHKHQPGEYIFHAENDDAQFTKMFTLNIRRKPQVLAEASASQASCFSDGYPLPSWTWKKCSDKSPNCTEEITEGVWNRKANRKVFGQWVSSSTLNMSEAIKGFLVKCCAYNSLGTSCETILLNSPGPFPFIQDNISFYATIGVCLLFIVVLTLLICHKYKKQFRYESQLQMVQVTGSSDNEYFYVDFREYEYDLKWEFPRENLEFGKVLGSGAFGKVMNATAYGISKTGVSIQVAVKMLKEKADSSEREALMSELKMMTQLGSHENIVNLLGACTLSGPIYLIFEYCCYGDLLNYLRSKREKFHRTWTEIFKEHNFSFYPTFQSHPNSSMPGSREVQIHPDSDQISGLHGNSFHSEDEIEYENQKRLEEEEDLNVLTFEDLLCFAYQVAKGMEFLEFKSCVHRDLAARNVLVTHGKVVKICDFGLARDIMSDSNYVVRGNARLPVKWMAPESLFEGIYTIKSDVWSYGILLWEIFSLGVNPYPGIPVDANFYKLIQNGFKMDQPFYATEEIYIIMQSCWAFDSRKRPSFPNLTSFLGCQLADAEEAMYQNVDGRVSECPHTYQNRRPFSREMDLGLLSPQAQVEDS
Chain of Serine/threonine-protein kinase Nek1 (Homo sapiens) (Q96PY6 whole entry): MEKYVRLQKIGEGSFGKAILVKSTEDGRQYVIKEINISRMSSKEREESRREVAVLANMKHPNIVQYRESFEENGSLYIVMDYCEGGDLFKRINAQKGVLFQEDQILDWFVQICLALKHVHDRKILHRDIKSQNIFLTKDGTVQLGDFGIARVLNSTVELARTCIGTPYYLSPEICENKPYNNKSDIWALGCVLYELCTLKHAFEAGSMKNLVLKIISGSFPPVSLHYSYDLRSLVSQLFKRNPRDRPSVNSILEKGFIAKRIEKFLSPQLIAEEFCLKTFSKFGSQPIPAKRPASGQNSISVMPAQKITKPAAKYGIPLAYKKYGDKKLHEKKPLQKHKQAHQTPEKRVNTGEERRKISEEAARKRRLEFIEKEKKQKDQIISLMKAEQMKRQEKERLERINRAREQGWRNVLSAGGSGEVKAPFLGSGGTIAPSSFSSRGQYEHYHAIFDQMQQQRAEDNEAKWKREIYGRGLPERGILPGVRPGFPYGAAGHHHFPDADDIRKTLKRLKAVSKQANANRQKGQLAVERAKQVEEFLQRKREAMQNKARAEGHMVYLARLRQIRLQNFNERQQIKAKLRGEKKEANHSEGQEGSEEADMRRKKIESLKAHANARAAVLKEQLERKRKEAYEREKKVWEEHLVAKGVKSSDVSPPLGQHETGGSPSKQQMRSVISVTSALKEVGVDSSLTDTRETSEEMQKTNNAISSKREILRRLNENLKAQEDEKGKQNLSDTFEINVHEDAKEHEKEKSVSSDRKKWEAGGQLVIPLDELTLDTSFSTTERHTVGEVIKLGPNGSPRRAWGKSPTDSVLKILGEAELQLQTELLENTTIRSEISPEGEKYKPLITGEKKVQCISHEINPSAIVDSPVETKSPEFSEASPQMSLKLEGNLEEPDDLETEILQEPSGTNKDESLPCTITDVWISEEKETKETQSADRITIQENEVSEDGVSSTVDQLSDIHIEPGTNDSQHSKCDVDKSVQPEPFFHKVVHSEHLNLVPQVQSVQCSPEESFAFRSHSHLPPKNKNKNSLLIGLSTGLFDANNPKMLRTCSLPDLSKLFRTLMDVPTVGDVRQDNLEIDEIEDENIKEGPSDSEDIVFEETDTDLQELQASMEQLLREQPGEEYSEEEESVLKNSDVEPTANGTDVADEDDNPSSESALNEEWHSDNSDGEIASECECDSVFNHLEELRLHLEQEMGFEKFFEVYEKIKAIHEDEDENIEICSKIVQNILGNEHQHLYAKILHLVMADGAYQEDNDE
Chain of Inhibitor of nuclear factor kappa-B kinase subunit epsilon (Homo sapiens) (Q14164 whole entry): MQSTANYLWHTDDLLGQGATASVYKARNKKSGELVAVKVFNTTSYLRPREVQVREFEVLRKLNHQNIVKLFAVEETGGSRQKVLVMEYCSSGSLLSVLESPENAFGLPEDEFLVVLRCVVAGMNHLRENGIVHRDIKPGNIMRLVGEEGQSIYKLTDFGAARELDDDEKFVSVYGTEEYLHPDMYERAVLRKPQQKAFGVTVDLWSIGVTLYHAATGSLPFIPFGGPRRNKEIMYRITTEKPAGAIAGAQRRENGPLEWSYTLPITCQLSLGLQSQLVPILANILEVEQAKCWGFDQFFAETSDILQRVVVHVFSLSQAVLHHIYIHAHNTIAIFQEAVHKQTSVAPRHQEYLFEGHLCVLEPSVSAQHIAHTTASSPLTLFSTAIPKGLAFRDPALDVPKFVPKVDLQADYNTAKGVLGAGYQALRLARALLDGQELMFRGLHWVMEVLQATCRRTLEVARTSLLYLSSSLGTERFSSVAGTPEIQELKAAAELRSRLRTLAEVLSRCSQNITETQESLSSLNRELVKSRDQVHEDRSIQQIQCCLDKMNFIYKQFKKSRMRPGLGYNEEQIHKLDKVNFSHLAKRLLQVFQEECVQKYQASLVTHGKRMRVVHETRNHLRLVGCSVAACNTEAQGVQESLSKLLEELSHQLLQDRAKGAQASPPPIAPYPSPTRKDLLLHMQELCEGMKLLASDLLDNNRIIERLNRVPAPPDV

For the molecule `CCc1cc(NC(=O)Nc2ccc(-c3cnc(Nc4cc(N5CCN(CC)CC5)nc(C)n4)s3)cc2)no1`, the figures for the inhibition in test [1], in test [2] and in test [3] were 98%, 23% and 18%, respectively. Further, the result in the test on MV4-11 was Active. In addition, the Activity with Mus musculus is listed as 90%.

In general, inhibition refers to how much of the control response was suppressed. Read a low inhibition as a response near the control.
